Source: patent US20050148614A1 (priority 1997, published 2005)

Columns and labels:
[1] = test system: amnesia induced by the injection of vincristine; experiment: Evaluation test of the social memory in the rat after lesions caused by injection of vincristine; assay type: in vivo; conditions: vincristine-lesioned rats
Description: In this model, the effects are evaluated of the products tested on amnesia induced by the injection of vincristine which induces biochemical alterations similar to the changes present in Alzheimer's disease.
The procedures used in this model, lesions caused by vincristine as well as the evaluation of the social memory are described in EP 655247.
Evaluation Test of the Social Memory in the Rat.
The dose of 1 mg/kg i.p. of tacrine is then administered to the two groups of rats.

[2] = test system: amnesia induced by the injection of vincristine; conditions: vincristine-lesioned rats; as described in EP 655247; cited from earlier work

SMILES: Nc1c2c(nc3ccccc13)CCCC2 [tacrine, reference compound]
- recovery of memory ([1]; solvent then tacrine 1 mg/kg i.p. (control group)): no recovery of memory

SMILES: Cl.FC(F)(F)c1cccc(C2=CCN(CCc3ccc4ccccc4c3)CC2)c1 [SR 57746A, 1-(2-naphth-2-ylethyl)-4-(3-trifluoromethylphenyl)-1,2,3,6-tetrahydropyridine hydrochloride]
- efficacious dose (functional recovery of memory) [2]: 10 mg/kg
- functional recovery in terms of memory ([1]; SR 57746A alone at 5 mg/kg p.o.): insufficient to permit functional recovery in terms of memory
